Assay results from patent US10221129B2, “Inhibitors of human immunodeficiency virus replication” (ViiV HEALTHCARE UK (NO.5) LIMITED, priority 2015, dated 2019).

Assays:
[1] = Compound cytotoxicity, XTT-based colorimetric assay; type: cell-based; conditions: human, uninfected MT2 cells, day 4, XTT
Experimental: Compound cytotoxicity and the corresponding CC50 values were determined using the same protocol as described in the antiviral assay except that uninfected cells were used. Cytotoxicity was assessed on day 4 in uninfected MT2 cells by using a XTT (2,3-bis[2-Methoxy-4-nitro-5-sulfophenyl]-2H-tetrazolium-5-carboxyanilide inner salt)-based colorimetric assay (Sigma-Aldrich, St Louis, Mo.).

[2] = system: recombinant NL4-3 virus (nef section replaced with Renilla luciferase gene) in MT-2 cells; experiment: HIV cell culture assay (antiviral activity, luciferase readout); type: cell-based; conditions: Renilla, NL43, MT-2 cells infected for 4-5 days with recombinant NL4-3 Renilla luciferase virus
Experimental: HIV cell culture assay—MT-2 cells, 293T cells and the proviral DNA clone of NL4-3 virus were obtained from the NIH AIDS Research and Reference Reagent Program. MT-2 cells were propagated in RPMI 1640 media supplemented with 10% heat inactivated fetal bovine serum (FBS), 100 jag/ml penicillin G and up to 100 units/mL streptomycin. The 293T cells were propagated in DMEM media supplemented with 10% heat inactivated FBS, 100 μg/mL penicillin G and 100 μg/mL streptomycin. A recombinant NL4-3 proviral clone, in which a section of the nef gene was replaced with the Renilla luciferase gene, was used to make the reference virus used in these studies. The recombinant virus was prepared through transfection of the recombinant NL4-3 proviral clone into 293T cells using Transit-293 Transfection Reagent from Mirus Bio LLC (Madison, Wis.). Supernatant was harvested after 2-3 days and the amount of virus present was titered in MT-2 cells using luciferase enzyme activity as a marker by measuring luciferase enzyme activity. Luciferase was quantitated using the EnduRen Live Cell Substrate from Promega (Madison, Wis.). Antiviral activities of compounds toward the recombinant virus were quantified by measuring luciferase activity in MT-2 cells infected for 4-5 days with the recombinant virus in the presence of serial dilutions of the compound.
(Johnson V A, Byington R T. Infectivity Assay. In Techniques in HIV Research. ed. Aldovini A, Walker B D. 71-76. New York: Stockton Press. 1990).

COc1ccc(N(C)C(=O)[C@H](Cc2ccccc2)NC(=O)NS(=O)(=O)N2CCc3cc(C)ccc32)cc1 [CA-2]
CC50 at 4 days [1]: > 33300 nM
EC50 [2]: 140 nM

COc1ccc(N(C)C(=O)[C@H](Cc2ccccc2)NC(=O)NS(=O)(=O)N2CCc3cc(Cl)cc(Cl)c32)cc1 [CA-3]
CC50 at 4 days [1]: > 100000 nM
EC50 [2]: 5720 nM

COc1ccc(N(C)C(=O)[C@H](Cc2ccccc2)NC(=O)NS(=O)(=O)Nc2cccc3ccccc23)cc1 [CA-4]
CC50 at 4 days [1]: 89400 nM
EC50 [2]: 410 nM

COc1ccc(N(C)C(=O)[C@H](Cc2ccccc2)NC(=O)NS(=O)(=O)Nc2ccc3ccccc3c2)cc1 [CA-5]
CC50 at 4 days [1]: > 33300 nM
EC50 [2]: 180 nM

COc1ccc(N(C)C(=O)[C@H](Cc2ccccc2)NC(=O)NS(=O)(=O)Nc2ccccc2C#N)cc1 [CA-6]
CC50 at 4 days [1]: > 100000 nM
EC50 [2]: 380 nM

COc1ccc(N(C)C(=O)[C@H](Cc2ccccc2)NC(=O)NS(=O)(=O)Nc2ccccc2F)cc1 [CA-7]
CC50 at 4 days [1]: > 100000 nM
EC50 [2]: 140 nM

COc1ccc(N(C)C(=O)[C@H](Cc2ccccc2)NC(=O)NS(=O)(=O)Nc2cccc3ncccc23)cc1 [CA-8]
CC50 at 4 days [1]: > 100000 nM
EC50 [2]: 590 nM

COc1ccc(N(C)C(=O)[C@H](Cc2ccccc2)NC(=O)NS(=O)(=O)Nc2cccc(C#N)c2)cc1 [CA-9]
CC50 at 4 days [1]: > 100000 nM
EC50 [2]: 260 nM

COc1ccc(N(C)C(=O)[C@H](Cc2ccccc2)NC(=O)NS(=O)(=O)Nc2cccc(F)c2)cc1 [CA-10]
CC50 at 4 days [1]: > 100000 nM
EC50 [2]: 70 nM

COc1ccc(N(C)C(=O)[C@H](Cc2ccccc2)NC(=O)NS(=O)(=O)Nc2ccc3c(c2)CCC3)cc1 [CA-11]
CC50 at 4 days [1]: > 100000 nM
EC50 [2]: 70 nM

COc1ccc(N(C)C(=O)[C@H](Cc2ccccc2)NC(=O)NS(=O)(=O)Nc2ccc(Cl)c(Cl)c2)cc1 [CA-12]
CC50 at 4 days [1]: > 33300 nM
EC50 [2]: 90 nM

COc1ccc(N(C)C(=O)[C@H](Cc2ccccc2)NC(=O)NS(=O)(=O)Nc2ccc(C)c(C)c2)cc1 [CA-13]
CC50 at 4 days [1]: > 100000 nM
EC50 [2]: 60 nM

COc1ccc(N(C)C(=O)[C@H](Cc2ccccc2)NC(=O)NS(=O)(=O)Nc2cc(C)cc(C)c2)cc1 [CA-14]
CC50 at 4 days [1]: > 33300 nM
EC50 [2]: 120 nM

COc1ccc(N(C)C(=O)[C@H](Cc2ccccc2)NC(=O)NS(=O)(=O)Nc2ccc(C#N)cc2)cc1 [CA-15]
CC50 at 4 days [1]: > 100000 nM
EC50 [2]: 70 nM

COc1ccc(N(C)C(=O)[C@H](Cc2ccccc2)NC(=O)NS(=O)(=O)Nc2ccc(Br)cc2)cc1 [CA-16]
CC50 at 4 days [1]: > 100000 nM
EC50 [2]: 90 nM

COc1ccc(N(C)C(=O)[C@H](Cc2ccccc2)NC(=O)NS(=O)(=O)Nc2ccc(NC(C)=O)cc2)cc1 [CA-17]
CC50 at 4 days [1]: > 100000 nM
EC50 [2]: 1940 nM

COc1ccc(N(C)C(=O)[C@H](Cc2ccccc2)NC(=O)NS(=O)(=O)Nc2ccc(Oc3ccccc3)cc2)cc1 [CA-18]
CC50 at 4 days [1]: > 33300 nM
EC50 [2]: 350 nM

COc1ccc(N(C)C(=O)[C@H](Cc2ccccc2)NC(=O)NS(=O)(=O)Nc2ccc(C(C)=O)cc2)cc1 [CA-19]
CC50 at 4 days [1]: > 100000 nM
EC50 [2]: 120 nM

COc1ccc(N(C)C(=O)[C@H](Cc2ccccc2)NC(=O)NS(=O)(=O)Nc2ccc(C(C)(C)C)cc2)cc1 [CA-20]
CC50 at 4 days [1]: > 100000 nM
EC50 [2]: 40 nM

COc1ccc(N(C)C(=O)[C@H](Cc2ccccc2)NC(=O)NS(=O)(=O)Nc2ccc(C(C)C)cc2)cc1 [CA-21]
CC50 at 4 days [1]: > 100000 nM
EC50 [2]: 80 nM

COc1ccc(N(C)C(=O)[C@H](Cc2ccccc2)NC(=O)NS(=O)(=O)Nc2ccccc2C(N)=O)cc1 [CA-22]
CC50 at 4 days [1]: > 100000 nM
EC50 [2]: 2510 nM

CCN(c1ccccc1)S(=O)(=O)NC(=O)N[C@@H](Cc1ccccc1)C(=O)N(C)c1ccc(OC)cc1 [CA-23]
CC50 at 4 days [1]: > 100000 nM
EC50 [2]: 60 nM

COc1ccc(N(C)C(=O)[C@H](Cc2ccccc2)NC(=O)NS(=O)(=O)Nc2ccc3ncsc3c2)cc1 [CA-24]
CC50 at 4 days [1]: > 100000 nM
EC50 [2]: 60 nM

COc1ccc(N(C)C(=O)[C@H](Cc2ccccc2)NC(=O)NS(=O)(=O)N(c2ccccc2)C(C)C)cc1 [CA-25]
CC50 at 4 days [1]: > 33300 nM
EC50 [2]: 1010 nM

COc1ccc(N(C)C(=O)[C@H](Cc2ccccc2)NC(=O)NS(=O)(=O)Nc2ccccc2OC(F)(F)F)cc1 [CA-26]
CC50 at 4 days [1]: > 100000 nM
EC50 [2]: 270 nM

COc1ccc(N(C)C(=O)[C@H](Cc2ccccc2)NC(=O)NS(=O)(=O)Nc2cccc(-c3cnco3)c2)cc1 [CA-27]
CC50 at 4 days [1]: > 100000 nM
EC50 [2]: 310 nM
